Source: a compilation of properties of binary mixtures (doi:10.1016/j.molliq.2012.02.019)

Test: xn = mol fraction of the nth substance listed
Conditions: 101 kPa

COC(=O)OC + CCCCCCCC[N+](C)(CCCCCCCC)CCCCCCCC.[Cl-]
x1 = 1
Conditions	electrical conductivity [S/m]	viscosity [mPa·s]
303.15 K	0.0001	0.55
308.15 K	–	0.49

CCCCCCCC[N+](C)(CCCCCCCC)CCCCCCCC.[Cl-] + COC(=O)OC
Conditions	electrical conductivity, 298.15 K [S/m]	electrical conductivity, 303.15 K [S/m]	electrical conductivity, 308.15 K [S/m]	electrical conductivity, 313.15 K [S/m]	electrical conductivity, 318.15 K [S/m]	viscosity, 298.15 K [mPa·s]	viscosity, 303.15 K [mPa·s]	viscosity, 308.15 K [mPa·s]	viscosity, 313.15 K [mPa·s]	viscosity, 318.15 K [mPa·s]
x1 = 0.002	0.0001	–	0.0002	0.0003	0.0004	–	–	–	–	–
x1 = 0.006	–	0.0003	0.0004	–	0.0006	–	–	–	–	–
x1 = 0.011	0.0006	0.0008	0.0009	0.001	0.0012	–	–	–	–	–
x1 = 0.015	0.0009	–	0.0013	0.0014	0.0015	–	–	–	–	–
x2 = 0	–	0.0035	0.0049	0.0066	0.0087	–	1602	1067	770	570
x2 = 0.35	0.0047	0.0064	0.0084	0.0108	0.0138	530	400	304	238	200
x2 = 0.55	0.0098	–	0.016	–	0.0249	158	–	98	–	65.2
x2 = 0.67	–	0.019	0.0236	0.0287	0.0347	–	47.1	38.66	32.21	27.29
x2 = 0.76	0.0211	0.0259	–	0.038	0.0452	22.51	18.86	–	13.72	11.84
x2 = 0.83	0.0235	0.0287	0.0345	0.041	0.0482	10.27	8.87	7.71	6.91	6.15
x2 = 0.88	–	0.031	0.037	0.0438	0.0513	–	4.56	4.11	3.7	3.36
x2 = 0.92	0.0171	0.0204	0.0246	–	0.0342	2.52	2.27	2.07	–	1.75
x2 = 0.95	0.0076	0.0094	–	0.014	0.0167	1.41	1.3	–	1.13	1.06
x2 = 0.98	0.0012	0.0016	–	–	0.002	0.79	0.75	–	–	0.64
